Assay results: US10918633B2, “Method of treating coronavirus” (MyMD Pharmaceuticals, Inc., priority 2015, dated 2021)
“Also recorded” adds a separate entry of the source.

Columns and labels:
[1] = system: herpes labialis (cold sores), a type of herpes simplex; assay: Treatment of herpes labialis (cold sores) in an individual; assay type: in vivo, human; details: 100 mg dose upon first feeling the onset of a cold sore
Procedure: This example illustrates administering isomyosmine to treat herpes labialis (cold sores), a type of herpes simplex occurring on the lip. An individual who experiences periodic outbreaks of herpes labialis was administered a 100 mg dose of isomyosmine upon first feeling the onset of a cold sore.

[2] = system: hydrogen sulfide (H2S); assay: Serum hydrogen sulfide (H2S) by ELISA in mice with EAE; assay type: in vivo; details: 5 mg/ml isomyosmine in water, FIG. 3A-3B
Procedure: This example describes an experiment to determine whether treatments with isomyosmine have an effect on hydrogen sulfide (H2S) quantity in mice with experimental autoimmune encephalomyelitis (EAE). Mice were immunized for EAE on day 0 and treated with either vehicle control or 5 mg/ml isomyosmine in water, for the duration of the experiment. Blood was collected, serum was separated and assayed for H2S via Kamiya Biomedical ELISA kit per the manufacturer's instructions. Two different experiments were performed. In the first experiment, blood was collected at the end of disease course. In the second experiment, blood was collected at day 12 after immunization.

[3] = system: purified nitrate reductase; assay: Cell-free nitrate reductase inhibition, Griess reaction; assay type: biochemical
Procedure: Standard concentrations of nitrate were incubated with purified nitrate reductase and vehicle or isomyosmine, and the Griess reaction was used to measure nitrite. Several concentrations of nitrate and two concentrations of isomyosmine were used.

[4] = molecular target: T1, MAO-A (Homo sapiens, UniProt P21397); assay: MAO-Glo luminescent assay, MAO-A inhibition; assay type: biochemical; details: FIG. 1
T1 construct: purchased
T1 sequence (P21397 1-527): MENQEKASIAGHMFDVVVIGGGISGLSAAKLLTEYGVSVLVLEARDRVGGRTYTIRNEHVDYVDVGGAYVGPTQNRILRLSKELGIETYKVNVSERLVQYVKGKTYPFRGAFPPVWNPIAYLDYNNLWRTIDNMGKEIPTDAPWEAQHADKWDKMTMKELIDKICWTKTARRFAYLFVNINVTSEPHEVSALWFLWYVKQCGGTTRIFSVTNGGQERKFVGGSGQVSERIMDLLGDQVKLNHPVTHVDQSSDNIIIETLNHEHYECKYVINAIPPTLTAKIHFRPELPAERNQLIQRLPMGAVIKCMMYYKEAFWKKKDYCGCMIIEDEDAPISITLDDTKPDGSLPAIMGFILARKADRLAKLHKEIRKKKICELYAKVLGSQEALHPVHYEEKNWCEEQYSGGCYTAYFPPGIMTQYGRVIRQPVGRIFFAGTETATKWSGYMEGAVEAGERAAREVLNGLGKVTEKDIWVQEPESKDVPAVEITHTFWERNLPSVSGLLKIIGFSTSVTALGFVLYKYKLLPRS
From the text: (§1) This example describes experiments for determining monoamine oxidase (MAO) inhibition for isomyosmine and other alkaloids. MAOs are enzymes located on the outer membrane of mitochondria and are involved in the catabolism of monoamine neurotransmitters. There are two well-characterized isoenzymes: MAO-A, which predominantly catabolizes serotonin and norepinephrine, and MAO-B, which preferentially catabolizes benzylamine and phenylethylamine. Dopamine and tyramine are metabolized by both isoforms.
(§2) To detect the activity of MAO, a luminescent method (MAO-Glo Assay kit, from Promega, Cat #V1401) was used. In this method, a MAO substrate (a derivative of beetle luciferin provided in the kit) is mixed with the compound to be tested (in this case, myosmine and control compounds). Then, the MAO enzymes (either A or B, purchased separately) are added to the mixture and incubated with the reaction for 1 hour at room temperature. The MAO enzymes, if not inhibited by the test compound, will convert the substrate into methyl ester luciferin. Finally, a luciferin detection reagent (provided by the kit) is added (20 minutes at room temperature) to stop the MAO reaction and convert methyl ester luciferin into D-luciferin. […] The luminescent signal is measured and recorded using a luminometer. […]

[5] = molecular target: T2, MAO-B (Homo sapiens, UniProt P27338); assay: MAO-Glo luminescent assay, MAO-B inhibition; assay type: biochemical; details: compared with myosmine, anatabine, anabasine, nornicotine; FIG. 2
T2 construct: purchased
T2 sequence (P27338 1-520): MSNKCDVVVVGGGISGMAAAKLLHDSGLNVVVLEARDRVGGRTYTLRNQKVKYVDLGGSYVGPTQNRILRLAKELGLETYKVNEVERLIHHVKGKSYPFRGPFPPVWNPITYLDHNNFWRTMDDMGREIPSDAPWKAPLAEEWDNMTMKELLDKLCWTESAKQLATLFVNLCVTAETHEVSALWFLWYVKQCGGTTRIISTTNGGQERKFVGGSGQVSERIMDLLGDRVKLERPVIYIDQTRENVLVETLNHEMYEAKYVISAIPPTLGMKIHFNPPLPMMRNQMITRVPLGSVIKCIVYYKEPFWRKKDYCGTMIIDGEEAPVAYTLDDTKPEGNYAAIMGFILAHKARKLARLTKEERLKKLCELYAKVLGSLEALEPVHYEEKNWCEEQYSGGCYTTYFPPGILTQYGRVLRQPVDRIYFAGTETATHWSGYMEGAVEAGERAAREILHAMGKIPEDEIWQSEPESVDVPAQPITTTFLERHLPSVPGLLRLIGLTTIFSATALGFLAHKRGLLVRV
From the text: as §1, §2

Q: For `C1=NC(c2cccnc2)CC1` (centres unmarked) [isomyosmine, 3-(3,4-dihydro-2H-pyrrol-2-yl)-pyridine], which “prevention of cold sore outbreak” value [1] is on record?
A: effective to prevent the outbreak of the cold sore

Q: What about the “H2S in serum as measured by ELISA” value ([2]; blood collected at day 12 after immunization) of the same compound?
A: trend toward an increase in H2S

Q: What about the “H2S in serum as measured by ELISA” value ([2]; blood collected at the end of disease course) of the same compound?
A: trend toward an increase in H2S

Q: And the “inhibition of nitrate reductase” value ([3]; high amount of substrate, system saturated (FIG. 4C))?
A: inhibitory effect was reduced

Q: What about the “inhibition of nitrate reductase” value ([3]; low amount of substrate (FIG. 4A)) of the same compound?
A: most efficiently

Q: And the inhibition at 2000 µM ([4]; 2 mM concentration (2,000 micromolar), read-out: inhibition of the enzymatic activity of MAO-A)?
A: ~50%

Q: What about the “inhibition of the enzymatic activity of MAO-A (in words, curve position)” value ([4]; compared with myosmine, anatabine, anabasine, nornicotine) of the same compound?
A: most potent of the five; also recorded: potent inhibitor

Q: And the “inhibition of the activity of MAO-B (in words)” value [5]?
A: most potent among the five alkaloids tested; also recorded: potent inhibitor
